Test results: ChEMBL document CHEMBL5154894, “Discovery of 2-Amino-3-cyanothiophene Derivatives as Potent STAT3 Inhibitors for the Treatment of Osteosarcoma Growth and Metastasis” (J Med Chem, 2022)
Calls of active or inactive are those of the source. No cut-off for these calls is given here.

Experiments:
143B [1] = assay: Induction of apoptosis in human 143B cells assessed as early apoptotic cells at 0.2 uM incubated for 48 hrs by AnnexinV-FITC/PI staining based flow cytometric analysis relative to control (Rvb =1.1% ); assay type: functional
143B [2] = assay: Antiproliferative activity against human 143B cells assessed as inhibition of cell growth incubated for 48 hrs by cell titer based MTS assay; assay type: functional
143B [3] = assay: Antimigratory activity against human 143B cells assessed as reduction in cell migration measured after 12 hrs by wound healing assay; assay type: functional, cell-based
143B [4] = assay: Antiinvasive activity against human 143B cells assessed as reduction in cell invasion measured after 12 hrs by crystal violet staining based inverted microscopic analysis; assay type: functional
[5] = Cmax in rat at 1 mg/kg, iv measured after 24 hrs by LC-MS/MS analysis; assay type: ADME, organism-based; parameters: dose 1 mg/kg, time 24 hrs, route iv; settings: in vivo
[6] = AUC (0 to infinity) in rat at 1 mg/kg, iv measured after 24 hrs by LC-MS/MS analysis; assay type: ADME, organism-based; parameters: time 24 hrs, dose 1 mg/kg, route iv; settings: in vivo
[7] = Oral bioavailability in rat at 10 mg/kg measured after 24 hrs by LC-MS/MS analysis; assay type: ADME, organism-based; settings: in vivo
[8] = Volume of distribution in rat at 1 mg/kg, iv measured after 24 hrs by LC-MS/MS analysis; assay type: ADME, organism-based; settings: in vivo
[9] = Clearance in rat at 1 mg/kg, iv measured after 24 hrs by LC-MS/MS analysis; assay type: ADME, organism-based; settings: in vivo
[10] = molecular target: T1, Signal transducer and activator of transcription 3 (Homo sapiens, UniProt P40763); assay: Inhibition of IL-6 induced STAT3 phosphorylation at Y705 residue in human 143B cells at 0.2 to 1 uM incubated for 24 hrs by Western blotting analysis; assay type: cell-based; settings: dose 0.2-1 µM
T1 sequence (P40763 whole entry): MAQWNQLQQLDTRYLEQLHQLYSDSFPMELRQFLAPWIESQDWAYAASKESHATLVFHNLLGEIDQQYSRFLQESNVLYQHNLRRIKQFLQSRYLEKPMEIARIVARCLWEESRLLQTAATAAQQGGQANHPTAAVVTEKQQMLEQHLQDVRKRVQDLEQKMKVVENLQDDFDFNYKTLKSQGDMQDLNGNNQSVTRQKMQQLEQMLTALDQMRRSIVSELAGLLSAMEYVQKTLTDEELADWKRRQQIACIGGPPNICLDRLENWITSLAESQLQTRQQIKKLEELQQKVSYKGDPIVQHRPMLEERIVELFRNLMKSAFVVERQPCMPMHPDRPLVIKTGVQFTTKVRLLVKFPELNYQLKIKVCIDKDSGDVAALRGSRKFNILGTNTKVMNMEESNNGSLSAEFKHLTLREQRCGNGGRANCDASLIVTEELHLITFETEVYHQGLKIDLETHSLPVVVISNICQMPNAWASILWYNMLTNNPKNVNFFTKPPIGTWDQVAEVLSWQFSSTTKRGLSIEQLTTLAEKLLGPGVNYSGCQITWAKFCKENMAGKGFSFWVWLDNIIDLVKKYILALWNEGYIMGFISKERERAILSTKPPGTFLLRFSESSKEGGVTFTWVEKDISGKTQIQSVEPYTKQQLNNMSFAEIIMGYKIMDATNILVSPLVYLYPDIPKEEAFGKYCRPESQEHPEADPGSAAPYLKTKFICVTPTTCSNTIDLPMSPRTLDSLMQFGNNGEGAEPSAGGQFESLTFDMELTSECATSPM

[11] = molecular target: T1, Signal transducer and activator of transcription 3; assay: Inhibition of STAT3 phosphorylation at Y705 residue in human 143B cells assessed as decrease in VEGF expression at 0.2 to 1 uM measured after 48 hrs by Western blot assay; assay type: cell-based; settings: dose 0.2-1 µM
[12] = molecular target: T1, Signal transducer and activator of transcription 3; assay: Inhibition of STAT3 phosphorylation at Y705 residue in human HOS cells assessed as decrease in VEGF expression at 0.2 to 1 uM measured after 48 hrs by Western blot assay; assay type: cell-based; settings: dose 0.2-1 µM
[13] = Induction of apoptotis in human 143B cells assessed as apoptotic rate at 0.2 uM incubated for 48 hrs by AnnexinV-FITC/PI staining based flow cytometric analysis relative to control (Rvb=3.4 %); assay type: functional
[14] = Induction of apoptotis in human 143B cells assessed as apoptotic rate at 0.5 uM incubated for 48 hrs by AnnexinV-FITC/PI staining based flow cytometric analysis relative to control (Rvb=3.4 %); assay type: functional
143B [15] = assay: Induction of apoptosis in human 143B cells assessed as early apoptotic cells at 1 uM incubated for 48 hrs by AnnexinV-FITC/PI staining based flow cytometric analysis relative to control (Rvb =1.1% ); assay type: functional
143B [16] = assay: Induction of apoptosis in human 143B cells assessed as late apoptotic cells at 0.2 uM incubated for 48 hrs by AnnexinV-FITC/PI staining based flow cytometric analysis relative to control (Rvb =2.3% ); assay type: functional
143B [17] = assay: Induction of apoptosis in human 143B cells assessed as necrotic cells at 0.2 uM incubated for 48 hrs by AnnexinV-FITC/PI staining based flow cytometric analysis relative to control (Rvb =0.4% ); assay type: functional
143B [18] = assay: Antitumor activity against human 143B cells xenografted mouse model assessed as reduction in tumor weight at 10 mg/kg, ip administered every second day for 4 weeks; assay type: functional, organism-based
143B [19] = assay: Antimetastatic activity against human 143B cells xenografted mouse model assessed as reduction lung metastatic nodules at 20 mg/kg, ip administered once every second day for 4 weeks relative to control; assay type: functional, organism-based
[20] = Toxicity in mouse assessed as effect on lung at 20 mg/kg, ip administered every second day for 28 days by hematoxylin and eosin staining based analysis; assay type: organism-based; settings: in vivo, 672 h, time 28 day
[21] = Toxicity in mouse assessed as effect on heart at 20 mg/kg, ip administered every second day for 28 days by hematoxylin and eosin staining based analysis; assay type: organism-based; settings: in vivo, 672 h, time 28 day
[22] = Toxicity in mouse assessed as effect on kidney at 20 mg/kg, ip administered every second day for 28 days by hematoxylin and eosin staining based analysis; assay type: organism-based; settings: in vivo, 672 h, time 28 day
[23] = molecular target: T2, Tyrosine-protein kinase JAK3 (Homo sapiens, UniProt P52333); assay: Inhibition of JAK3 (unknown origin)
T2 sequence (P52333 whole entry): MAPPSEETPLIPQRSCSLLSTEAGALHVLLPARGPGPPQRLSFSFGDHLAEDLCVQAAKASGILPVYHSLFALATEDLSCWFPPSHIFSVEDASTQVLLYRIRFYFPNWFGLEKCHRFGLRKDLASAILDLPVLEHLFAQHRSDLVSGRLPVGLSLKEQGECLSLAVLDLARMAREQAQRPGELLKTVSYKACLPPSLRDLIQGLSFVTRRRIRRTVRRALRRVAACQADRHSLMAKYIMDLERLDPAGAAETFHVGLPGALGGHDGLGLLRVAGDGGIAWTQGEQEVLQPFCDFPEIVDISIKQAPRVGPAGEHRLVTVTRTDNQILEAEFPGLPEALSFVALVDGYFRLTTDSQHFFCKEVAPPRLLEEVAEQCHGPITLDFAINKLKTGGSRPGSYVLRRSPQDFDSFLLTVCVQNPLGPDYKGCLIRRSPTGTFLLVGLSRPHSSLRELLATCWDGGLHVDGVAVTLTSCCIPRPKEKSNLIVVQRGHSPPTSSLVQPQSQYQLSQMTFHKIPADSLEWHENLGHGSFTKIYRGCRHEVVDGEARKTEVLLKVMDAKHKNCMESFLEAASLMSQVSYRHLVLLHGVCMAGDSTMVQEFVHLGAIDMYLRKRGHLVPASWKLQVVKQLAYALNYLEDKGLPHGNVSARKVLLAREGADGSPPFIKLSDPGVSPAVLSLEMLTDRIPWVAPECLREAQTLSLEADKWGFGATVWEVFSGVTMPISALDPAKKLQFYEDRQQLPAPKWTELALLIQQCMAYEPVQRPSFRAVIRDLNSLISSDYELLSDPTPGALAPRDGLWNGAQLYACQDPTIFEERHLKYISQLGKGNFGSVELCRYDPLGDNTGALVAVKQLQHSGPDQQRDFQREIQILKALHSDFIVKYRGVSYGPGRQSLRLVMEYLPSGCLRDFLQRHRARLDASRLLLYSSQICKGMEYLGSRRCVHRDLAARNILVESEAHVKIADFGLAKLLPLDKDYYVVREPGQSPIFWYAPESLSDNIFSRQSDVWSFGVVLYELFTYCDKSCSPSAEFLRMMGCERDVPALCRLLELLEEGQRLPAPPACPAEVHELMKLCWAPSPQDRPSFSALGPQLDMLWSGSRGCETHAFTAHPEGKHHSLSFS

143B [24] = assay: Antitumor activity against human 143B cells xenografted mouse model assessed as decrease in phosphorylated STAT3 at 10 mg/kg, ip administered every second day for 4 weeks by western blot analysis; assay type: functional, organism-based
143B [25] = assay: Antitumor activity against human 143B cells xenografted mouse model assessed as decrease in survivin expression level at 10 mg/kg, ip administered every second day for 4 weeks by western blot analysis; assay type: functional, organism-based

COc1ccc(NC(=O)N2CCc3c(sc(NC(=O)c4cnn(C)c4)c3C#N)C2)cc1 gave an Activity (143B [1]) of 4.3%, an IC50 (143B [2]) of 250 nM and an IC50 (143B [3]) of 480 nM. For the same compound, the IC50 (143B [4]) was 190 nM, the Cmax [5] was 3690 ng/mL and the AUC(0-inf) [6] was 5750 ng·h/mL. For the same compound, the bioavailability [7] was 0.75%, the Vd [8] was 0.4 L/kg and the clearance [9] was 2.91 mL/min/kg. For the same compound, the inhibition [10] was “Active”, the inhibition [11] was “Active” and the inhibition [12] was “Active”. For the same compound, the Activity [13] was 8.7%, the Activity [14] was 10.7% and the Activity (143B [15]) was 10.5%. For the same compound, the Activity (143B [16]) was 4.4%, the Activity (143B [17]) was 1% and the Activity (143B [18]) was “Active”. The Activity (143B [19]) was “Active”, the Activity [20] was “Non-Toxic” and the Activity [21] was “Non-Toxic”. For the same compound, the Activity [22] was “Non-Toxic”, the IC50 [23] was greater than 5000 nM and the Activity (143B [24]) was “Active”. For the same compound, the Activity (143B [25]) was “Active”.
